# Source: US20250164396A1, “METHOD FOR VISUALIZING DENATURED STATE OR AGGREGATED STATE OF PROTEIN” (TOHOKU UNIVERSITY, priority 2022, published 2025)
# Tests used:
# α-Synuclein fibril = target: T1, α-Synuclein fibril (Homo sapiens, UniProt P37840); assay: Quantification of aggregated state of α-synuclein fibril by probe fluorescence; conditions: 500 nM fibril, 37° C.; FIG. 3
# T1 construct: purchased Cosmo Bio Co., Ltd. SYN03
# Protocol: α-Synuclein fibril (Cosmo Bio Co., Ltd., SYN03) was diluted with 10 mM MES buffer (pH: 7.4) to prepare a 500 nM solution. The solution was dispensed in 50 μL portions in a 96-well half well black plate (Greiner, 675086). […] The fluorescence (using filters for Ex: […]) was measured in a plate reader (Teccan, Infinite 200 Pro F PLEX) under constant temperature conditions at 37° C. with plate shaking at 1 second per minute. The ONBD compounds used were three types: iPrONBD and octylONBD described above, as well as PEGONBD shown below.
# HSP90 [1] = assay: Two-dimensional electrophoresis of probe-labelled HeLa lysate, denatured HSP90 with or without geldanamycin; format: binding; conditions: probe 1 mM, geldanamycin 50 μM, 45° C. for 5 minutes, total protein; FIG. 18
# Protocol: HeLa cells were scraped with a scraper and washed three times with ice-cold PBS, and a protease inhibitor cocktail (Nacalai, 25955-24) was resuspended in ice-cold M-PER buffer (Thermo Fisher Scientific, 78503) and allowed to stand on ice for 10 minutes. After centrifugation at 20,000×g for 20 minutes at 4° C., the supernatant was separated from the cell lysate. The protein concentration was determined by using the BCA method. To the supernatant (2 mg/ml), the same amount of geldanamycin (TCI, […]; final concentration: 50 μM) and DMSO were added, followed by treatment at room temperature for 10 minutes. […] A stock solution (DMSO solution) of 100 mM iPrONBD was added to the sample to a final concentration of 1 mM and allowed to stand at 37° C. for 30 minutes, and the solution was then transferred to a PCR tube. The PCR tube was heated using a thermal cycler (MiniAmp Plus) at 45° C. for 5 minutes and then allowed to stand at room temperature. A sample was prepared according to the protocol of the ReadyPrep 2-D cleanup kit (Bio-Rad), and the final pellets obtained were dissolved in 15 μL of swelling buffer (containing ampolyte, pH: 3-10) included with the Auto2D Glycine Type Reagent Kit, followed by two-dimensional electrophoresis (FIG. 18).
# [2] = target: T2, Bovine carbonic anhydrase (Bos taurus, UniProt P00921); assay: Fluorescence response of ONBD probes to heat denaturation of carbonic anhydrase; conditions: 1 mM ONBD compound; heated from 25° C. by 5° C. every 180 seconds; FIG. 1
# T2 construct: purchased Aldrich C3934
# T2 sequence (P00921 whole entry): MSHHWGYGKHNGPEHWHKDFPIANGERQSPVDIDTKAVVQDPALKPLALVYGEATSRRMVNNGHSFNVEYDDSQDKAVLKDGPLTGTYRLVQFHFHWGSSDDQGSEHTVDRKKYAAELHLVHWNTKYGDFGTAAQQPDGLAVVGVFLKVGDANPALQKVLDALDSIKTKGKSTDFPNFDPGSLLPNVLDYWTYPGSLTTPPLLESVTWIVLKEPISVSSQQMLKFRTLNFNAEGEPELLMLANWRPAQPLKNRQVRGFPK
# Protocol: The PCR tube was heated with a protocol to increase the temperature by 5° C. every 180 seconds from 25° C. using a real-time PCR system (Takara Bio Inc., Thermal Cycler Dice, TP800). The fluorescence (FAM mode for ONBD compounds) was measured at the last 15 seconds of each step. Sypro Orange (Invitrogen S6650, 5000× concentration in DMSO) of the comparison target was added to a final concentration of 10×, the same operation was carried out, and the fluorescence was measured in ROX mode. The ONBD compounds used were the following five types: MeONBD, iPrONBD, nBuONBD, iBuONBD, and octylONBD.
# HSP90 [3] = assay: SDS-PAGE fluorescence detection of denatured HSP90 in HeLa cell lysate, with or without geldanamycin; format: binding; conditions: probe 1 mM, geldanamycin 50 μM, each temperature for 5 minutes, pellet fraction; FIG. 16
# Protocol: HeLa cells were scraped with a scraper and washed three times with ice-cold PBS, and a protease inhibitor cocktail (Nacalai, 25955-24) was resuspended in ice-cold M-PER buffer (Thermo Fisher Scientific, 78503) and allowed to stand on ice for 10 minutes. After centrifugation at 20,000×g for 20 minutes at 4° C., the supernatant was separated from the cell lysate. The protein concentration was determined by using the BCA method. To the supernatant (2 mg/ml), the same amount of geldanamycin (TCI, […]; final concentration: 50 μM) and DMSO were added, followed by treatment at room temperature for 10 minutes. […] A stock solution (DMSO solution) of 100 mM ONBD was added to the sample to a final concentration of 1 mM and allowed to stand at 37° C. for 30 minutes, and the solution was then transferred to a PCR tube. The PCR tube was heated using a thermal cycler (MiniAmp Plus) at each temperature for 5 minutes and then allowed to stand at room temperature. The sample was centrifuged at 20,000×g for 15 minutes at 4° C. In 1D SDS-PAGE (Bio-Rad, 4-10% acrylamide gel) of the pellet fraction, SDS-PAGE was performed while mixing with 1×SDS sample buffer and heating for 5 minutes at 95° C. Using various probes, SDS-PAGE was performed in the same manner as in Example 17 under heating conditions of 45° C. for 5 minutes (FIG. 17). […]
# [4] = target: T3, bovine carbonic anhydrase (CAII) (Bos taurus, UniProt P00921); assay: Detection of heat-denatured CAII in HEK293FT cell disruption solution by two-dimensional electrophoresis, with or without ligand; format: binding
# T3 construct: purchased Aldrich C3934
# T3 sequence (P00921 whole entry): as above
# Protocol: Thereafter, centrifugation was performed at 14,000×g for 10 minutes, and the supernatant was collected. […] The PCR tube was heated in a thermal cycler (Applied Biosystems, Mini Amp Plus) at 65° C. for 5 minutes and then allowed to stand at room temperature. The subsequent protocol to prepare two-dimensional electrophoresis samples was performed in the following two ways.
# (Protocol to collect all proteins) A sample was prepared according to the protocol of the ReadyPrep 2-D cleanup kit (Bio-Rad), and the final pellets obtained were dissolved in 15 μL of swelling buffer (containing ampolyte, pH: 3-10) included with the Auto2D Glycine Type Reagent Kit.
# (Protocol to collect pellets) The heated sample was centrifuged (at 20,000×g for 20 minutes), the supernatant was discarded, and the remaining pellets were dissolved in 15 μL of swelling buffer (containing ampolyte, pH: 3-10) included with the Auto2D Glycine Type Reagent Kit.
# Two-dimensional electrophoresis was performed according to the long-term protocol of Auto 2D Plus (Merck), and fluorescence images of the resulting gel were obtained using a fluorescence imager (Vilver Lourmat, Fusion Solo S). […] The ONBD compound used was iPrONBD described above.
structure (smiles),measurement,setting,value
CCCCCCCCOc1ccc([N+](=O)[O-])c2nonc12 [octylONBD],increase in fluorescence intensity over time in the presence of α-synuclein fibril,α-Synuclein fibril,the increase in the fluorescence intensity was significant
CC(C)Oc1ccc([N+](=O)[O-])c2nonc12 [iPrONBD],visualization of ligand-induced change in heat denaturation resistance of HSP90 by probe fluorescence,HSP90 [1],it was possible to visualize changes in the heat denaturation resistance of the target HSP90 by ligand addition
same,increase in the fluorescence intensity on heating,[2],the increase in the fluorescence intensity was significant
same,visualization of ligand-induced heat denaturation resistance of HSP90 by probe fluorescence,HSP90 [3],it was possible to visualize the acquisition of target heat denaturation resistance by ligand addition
O=[N+]([O-])c1ccc(Br)c2nonc12 [Br-NBD],suitability as probe under the denaturation conditions,"[4]; 65° C., 5 minutes",appropriate probe
same,"reduction in the fluorescence intensity of CA by brinzolamide, comparison of probes","[4]; iPrONBD versus BrNDB, FIG. 15",the reduction in the fluorescence intensity of CA was more significant
